Source: patent US5989874A, “Humectant, antistatic agent, dispersant and film-forming agent having polysaccharide as active principle, preparation process of polysaccharides, and Kliebsiella ocytoca TNM-3 strain” (Tayca Corporation, priority 1995, dated 1999)

Key:
[1] = Moisture retainability in low-humidity environment; type: physicochemical; conditions: relative humidity 20%, 20° C., 3 days
Protocol: The above operations were carried out at a constant temperature of 20° C.
The sample weight was measured periodically and he moisture retention percentagewas calculated from the following equation.
Moisture retention percentage(%)=(A-B)/B×100 (wherein A is sample weight when it became constant, and B is dry sample weight).

[2] = Moisture retention in high-humidity environment; type: physicochemical; conditions: relative humidity 92.9%, 30° C., 3 days
Protocol: The above operations were carried out at a constant temperature of 30° C.

[3] = tested on: mushroom-derived tyrosinase; experiment: Tyrosinase-inhibitory activity; type: biochemical; conditions: relative values to kojic acid = 1.0; 0.1 ml of 300 μg/ml solution; L-tyrosine; 25° C., 10 minutes, pH 6.5
Protocol: Absorbance at 475 nm was measured by an ultraviolet visible spectrophotometer. The above process was repeated without adding the polysaccharide, and the absorbance was measured in the similar way and given as blank. The above process was further carried out using the polysaccharide obtained in Example 3. […] The tyrosinase inhibition rate was calculated from the following equation. […] Tyrosinase inhibition rate=(OD2 -OD1)/OD2 ×100 wherein OD1 is absorbance at 475 nm in case the specimen was added, and OD2 is absorbance at 475 nm in case no specimen was added (blank).

skin = conditions: 4% (w/v) aqueous solution

Compound: OCC(O)CO [Glycerol, glycerol]
- Moisture retention [1]: 6.9%
- Material retention percentage (moisture retention percentage) [2]: 139.1%

Compound: O=c1cc(CO)occ1O [Kojic acid, kojic acid]
- Tyrosinase inhibition rate [3]: 1.0

Compound: CCCCCCCCCCCCOS(=O)(=O)[O-].[Na+] [sodium lauryl sulfate]
- primary irritation index (skin): 4.0
